Like-named read-outs stand apart in the source and are kept apart here. One block for each molecule: values may come before it. Numbered stars: 1 amine (or outer) side, 2 acyl side, 3 side chain; on linkers, the order of the positions; unused ones are H or OH. Bridge positions count the residues as written; N and C are the ends. Square brackets hold non-standard residues; d marks the D form. Peptide text beside a SMILES is read from it. I, II: the chains in the order shown. Actinocin(9to1) = Cc1c2oc3c(C)ccc(C(=O)[*:1])c3nc-2c(C(=O)[*:2])c(N)c1=O; NMeV = CN[C@H](C(=O)O)C(C)C; Sar = CNCC(=O)O
Experiments:
[1] = test system: drug-sensitive ovarian cancer cell line OVCAR-5; test: Cell growth assay on OVCAR-5 cells; type: cell-based; settings: for IC50: Homo sapiens; for Magnitude of potentiation in combination with doxorubicin: OVCAR-5, ovarian carcinoma
Description: (§1) Compositions were tested on CHOP-resistant G3 NHL cells that had been cultivated in RPMI medium for five days. Prior to assay, the cells were counted by haemocytometer and cell concentration standardized to 625,000 cells/ml. Test drugs were solubilized in 100% DMSO and then diluted to final assay concentration with 0.1M phosphate buffered saline (PBS) and a final DMSO concentration of 0.5%. Cells were added to assay plates containing the test drugs (rifabutin+148 ng/ml, 74 ng/ml, 37 ng/ml, or 0 ng/ml doxorubicin) and allowed to incubate for 96 hours at 37° C. and 5% CO2. The metabolic dye rezasurin was added to the wells of the assay plate at a final concentration of 20 μg/ml and the plates were incubated for an additional 24 hours. The plates were then read in a BMG Polarstar plate reader at wavelength (573-605) and the data plotted as OD versus increasing dilutions (i.e. decreasing total amounts) of rifabutin derivative concentration.
(§2) In these experiments, the following cell lines were used: CHOP-resistant NHL cell line G3, CHOP-sensitive NHL cell line CRL2631, the multi-drug resistant sarcoma cell line MES-SA-Dx5; multi-drug-resistant breast cancer cell line MDA-MB-231, multi-drug resistant ovarian carcinoma cell line SK-OV3, multi-drug resistant ovarian cancer cell line NCI/ADR-RES, drug-sensitive ovarian cancer cell line OVCAR-5, and multi-drug resistant ovarian cancer cell line OVCAR-3.
(§3) Additional cell lines used include: ovarian cancer OVCAR-8, T lymphoblastoid leukemia MOLT-4, dexamethasone-resistant multiple myeloma MM.1R, myeloid leukemia cells HL-60, osteosarcoma cells U-2 OS, and myeloma RPMI 8226.

lymphoma cell line G3 = test: Cell growth assay (resazurin fluorescence) on CHOP-resistant G3 NHL cells; type: cell-based, human; settings: for Magnitude of potentiation in combination with doxorubicin: G3, lymphoma B cells; for IC50 / Fold increase in potency over DOX alone: lymphoma cell line G3
Description: as §1

[2] = test system: multi-drug resistant ovarian carcinoma cell line SK-OV3; test: Cell growth assay on SK-OV3 cells; type: cell-based, human; settings: SK-OV3, ovarian carcinoma
Description: as §1
as §2, with “OVCAR-3. […]” for “OVCAR-3.”

[3] = test system: multi-drug resistant sarcoma cell line MES-SA-Dx5; test: Cell growth assay on MES-SA-Dx5 cells; type: cell-based; settings: for Magnitude of potentiation in combination with doxorubicin: MES-SA-Dx5, uterus sarcoma
Description: as §1, §2, §3

[4] = test system: G3 CHOP-resistant NHL cells; settings: fourth study
Description: In a first efficacy study, 6-8 week old female SCID mice (7 mice per treatment arm) were injected subcutaneously on both flanks with 1×10^7 G3 CHOP-resistant NHL cells. Once palpable tumors (about […] size) appeared, therapies (CHOP or CHOP+rifabutin) were started. CHOP was administered at the maximum tolerated dose (cyclophosphamide, 40 mg/kg i.v.; doxorubicin, 3.3 mg/kg i.v.; vincristine, 0.5 mg/kg i.v.; and prednisone, 0.2 mg/kg orally daily for 5 d) weekly for 3 weeks. Rifabutin in an amount of 100 mg/kg was administered on the day of each CHOP treatment and 24-hours later by gavage. Mouse body weight and tumor size were monitored every two days and tumor size measured by caliper. The tumor volume formula (L*W*W)/2 was used to calculate tumor mass.
A second efficacy study was conducted where mice were treated before the appearance of palpable tumors. In that experiment, one week after transplantation of CHOP-resistant G3 cells, one group (7 mice) was treated with CHOP-only and a second group (8 mice) was treated with CHOP+rifabutin.
A third study was conducted in which mice injected with CHOP-resistant G3 cells received reduced dosages of CHOP in combination with 33 mg/kg rifabutin. CHOP+rifabutin was administered weekly beginning one week post-inoculation. Control mice were given no CHOP or rifabutin.
SCID mice were injected with CHOP-resistant G3 cells in the same manner as the first efficacy study above. Treatments began 2 weeks post-inoculation and were administered twice weekly.

[5] = test system: multi-drug resistant ovarian cancer cell line NCI/ADR-RES; test: Cell growth assay on NCI/ADR-RES cells; type: cell-based; settings: NCI/ADR-RES, ovarian carcinoma
Description: as §1, §2, §3

[6] = test system: primary human fibroblasts; settings: with and without 2 uM Dox
[7] = test system: T lymphoblastoid leukemia MOLT-4; test: Cell growth assay on MOLT-4 cells; type: cell-based
Description: as §1, §3

[8] = test system: multi-drug resistant ovarian cancer cell line OVCAR-3; test: Cell growth assay on OVCAR-3 cells; type: cell-based; settings: for IC50: Homo sapiens
Description: as §1
as §2, with “OVCAR-3. […]” for “OVCAR-3.”

[9] = test system: dexamethasone-resistant multiple myeloma MM.1R; test: Cell growth assay on MM.1R cells; type: cell-based; settings: for Fold increase in potency: with vs without Rifabutin
Description: as §1, §3

[10] = test system: ROS in ADR-RES ovarian cells; test: Intracellular ROS (CellROX, flow cytometry) in ADR-RES cells; type: cell-based; settings: 10 uM, 2 hrs
Description: (§4) Cells were then stained with the fluorescent ROS indicator, CellROX, and subjected to flow cytometry to quantitate total intracellular ROS.

ROS in G3 lymphoma cells = test: Intracellular ROS (CellROX, flow cytometry) in G3 cells; type: cell-based, human; settings: 10 uM, 2 hrs
Description: as §4
The electron transport chain (ETC) is known to be a primary generator of ROS in the cell. Most of the ROS is generated by Complexes I and III of the ETC Inhibition of Complex I results in electrons piling up and leaking to react with oxygen to produce ROS.
(§5) All samples were analyzed at the same time in flow cytometry.

[11] = test system: ROS in OVCAR8 ovarian cells; test: Intracellular ROS (CellROX, flow cytometry) in OVCAR8 cells; type: cell-based; settings: 10 uM, 2 hrs, degree much less than in resistant lines
Description: as §4

calcium in G3 cells = test: Calcium mobilization (Fluo-4AM, flow cytometry); type: cell-based, human; settings: Dox-resistant cells (G3R, 10R, WSUR), 10 uM, 2 hrs, FIG. 41B/41C
Description: MDR/P-gp activity is closely associated with calcium status in the cell, so calcium modulators were tested for effects on ROS. […] Relatively Dox-sensitive lymphoma (CRL2631, 10S, WSU) and ovarian carcinoma (OVCAR8) and more Dox-resistant lymphoma (G3R,10R, WSUR) and ovarian carcinoma (ADR) were treated with 10 uM […] for 2 hrs. […] Cells were co-stained with the cell-permeable red fluorescent ROS indicator, CellROX, and cell-permeable green fluorescent calcium indicator, Fluo-4AM, and then subjected to flow cytometry to quantitate changes in ROS and calcium levels.
as §5

[12] = with 1 μM doxorubicin, read-out: IC50 (μM) with doxorubicin (1 μM)
[13] = therapeutic drug alone, read-out: IC50
[14] = therapeutic drug with Rifabutin, read-out: IC50 (μM) with Rifabutin

- IC50 ([1]; therapeutic drug alone, OVCAR-5, read-out: IC50): 0.17 µM
- IC50 ([1]; therapeutic drug with Rifabutin, OVCAR-5, read-out: IC50 (μM) with Rifabutin): 0.08 µM
Structure (SMILES): CC(C)C[C@H](NC(=O)[C@H](Cc1ccccc1)NC(=O)c1cnccn1)B(O)O [Velcade, bortezomib]
- Fold increase in potency ([1]; with vs without Rifabutin, OVCAR-5): 2.1 fold

Structure (SMILES): COC1C=COC2(C)Oc3c(C)c(O)c4c(c3C2=N)C2=NC3(CCN(C(=O)OCC(C)C)CC3)NC2=C(NC(=O)C(C)=CC=CC(C)C(O)C(C)C(O)C(C)C(OC(C)=O)C1C)C4=O (stereo not drawn) [RTI-81, 11-deoxy-11-imino-4-deoxy-3,4[2-spiro-[1-(isobutyloxycarbonyl)-piperidin-4-yl]]-(1H)-imidazo-(2,5-dihydro)rifamycin S]
- Magnitude of potentiation in combination with doxorubicin (lymphoma cell line G3): +++ (potentiation greater than 5 fold increase)
- IC50 (lymphoma cell line G3; analog alone, read-out: IC50): > 64 µM
- IC50 (lymphoma cell line G3; [12]): 0.3 µM
- Magnitude of potentiation in combination with doxorubicin [2]: +++ (potentiation greater than 5 fold increase)
- Magnitude of potentiation in combination with doxorubicin [3]: ++ (potentiation between 2.1 to 5 fold increase)
- longer life than doxorubicin only ([4]; DOX 3.3 mg/kg iv + RTI-81 10 mg/kg by gavage twice weekly): 27%
- mean lifespan ([4]; doxorubicin+RTI-81 group): 42.6
- median lifespan ([4]; doxorubicin+RTI-81 group): 42
- Magnitude of potentiation in combination with doxorubicin [5]: + (potentiation between 1.2 to 2.0 fold increase)

Structure (SMILES): COC1C=COC2(C)Oc3c(C)c(O)c4c(c3C2N)C2=NC3(CCN(C(=O)OCC(C)C)CC3)NC2=C(NC(=O)C(C)=CC=CC(C)C(O)C(C)C(O)C(C)C(OC(C)=O)C1C)C4=O (stereo not drawn) [RTI-176, 11-deoxy-11-amino-4-deoxy-3,4[2-spiro-[1-(isobutyloxycarbonyl)-piperidin-4-yl]]-(1H)-imidazo-(2,5-dihydro)rifamycin S]
- Magnitude of potentiation in combination with doxorubicin [1]: + (potentiation between 1.2 to 2.0 fold increase)
- comparative cytotoxicity to normal cells [6]: not toxic to normal cells
- Magnitude of potentiation in combination with doxorubicin (lymphoma cell line G3): +++ (potentiation greater than 5 fold increase)
- IC50 (lymphoma cell line G3; analog alone, read-out: IC50): > 64 µM
- Fold increase in potency over DOX alone (lymphoma cell line G3): 5.2 fold
- IC50 (lymphoma cell line G3; [12]): 0.45 µM
- Magnitude of potentiation in combination with doxorubicin [2]: +++ (potentiation greater than 5 fold increase)

Structure (SMILES): Cc1c2oc3c(C)ccc(C(=O)N[C@@H]4C(=O)N[C@H](C(C)C)C(=O)N5CCC[C@H]5C(=O)N(C)CC(=O)N(C)[C@@H](C(C)C)C(=O)O[C@@H]4C)c3nc-2c(C(=O)N[C@@H]2C(=O)N[C@H](C(C)C)C(=O)N3CCC[C@H]3C(=O)N(C)CC(=O)N(C)[C@@H](C(C)C)C(=O)O[C@@H]2C)c(N)c1=O [Actinomycin D, actinomycin D] (I: T[dV]P[Sar][NMeV] / II: T[dV]P[Sar][NMeV]; ester I:1-I:C, II:1-II:C; linker I:N-II:N via Actinocin(9to1))
- IC50 ([3]; therapeutic drug alone, MES-SA-Dx5, read-out: IC50): 0.03 µM
- IC50 ([3]; therapeutic drug with Rifabutin, MES-SA-Dx5, read-out: IC50 (μM) with Rifabutin): 0.01 µM
- Fold increase in potency ([3]; with vs without Rifabutin, MES-SA-Dx5): 3 fold
- IC50 [7, 13]: 0.04 µM
- IC50 [7, 14]: < 0.008 µM
- Fold increase in potency ([7]; with vs without Rifabutin): >5 fold

- IC50 ([8]; therapeutic drug alone, OVCAR-3, read-out: IC50): > 32 µM
- IC50 ([8]; therapeutic drug with Rifabutin, OVCAR-3, read-out: IC50 (μM) with Rifabutin): 10.9 µM
- IC50 [9, 13]: 4 µM
- IC50 [9, 14]: 2 µM
Structure (SMILES): CC1=CC(=O)c2ccccc2C1=O [Menadione, menadione]
- Fold increase in potency ([8]; with vs without Rifabutin, OVCAR-3): >2.9 fold
- Fold increase in potency [9]: 2 fold

Structure (SMILES): COC(=O)[C@H]1[C@H]2C[C@@H]3c4[nH]c5cc(OC)ccc5c4CCN3C[C@H]2C[C@@H](OC(=O)c2cc(OC)c(OC)c(OC)c2)[C@@H]1OC [reserpine]
- total intracellular ROS [10]: induced ROS
- total intracellular ROS (ROS in G3 lymphoma cells): induced ROS
- total intracellular ROS [11]: induced ROS

Structure (SMILES): COc1cc2c(cc1OC)CN(CCc1ccc(NC(=O)c3cccc4c(=O)c5cccc(OC)c5[nH]c34)cc1)CC2 [elacridar]
- total intracellular ROS [10]: induced ROS
- total intracellular ROS (ROS in G3 lymphoma cells): induced ROS
- total intracellular ROS [11]: induced ROS
- calcium mobilization (calcium in G3 cells): induced calcium in a similar manner as RTI-79

Structure (SMILES): CC[C@@]1(O)C(=O)OCc2c1cc1n(c2=O)Cc2cc3ccccc3nc2-1 [Camptothecin, camptothecin]
- IC50 [9, 13]: 1.13 µM
- IC50 [9, 14]: 0.3 µM
- Fold increase in potency [9]: 3.8 fold

Structure (SMILES): CO[C@H]1/C=C/O[C@@]2(C)Oc3c(C)c(O)c4c(c3C2O)C2=NC3(CCN(C(=O)OCC(C)C)CC3)NC2=C(NC(=O)/C(C)=C\C=C\[C@H](C)[C@H](O)[C@@H](C)[C@@H](O)[C@@H](C)[C@H](OC(C)=O)[C@@H]1C)C4=O (stereo partly drawn) [RTI-175, 11-deoxy-11-hydroxy-4-deoxy-3,4[2-spiro-[1-(isobutyloxycarbonyl)-piperidin-4-yl]]-(1H)-imidazo-(2,5-dihydro)rifamycin S]
- Magnitude of potentiation in combination with doxorubicin [1]: ++ (potentiation between 2.1 to 5 fold increase)
- Magnitude of potentiation in combination with doxorubicin (lymphoma cell line G3): ++ (potentiation between 2.1 to 5 fold increase)
- Fold increase in potency over DOX alone (lymphoma cell line G3): 2.2 fold
- Magnitude of potentiation in combination with doxorubicin [2]: +++ (potentiation greater than 5 fold increase)
- Magnitude of potentiation in combination with doxorubicin ([8]; OVCAR-3, ovarian carcinoma): + (potentiation between 1.2 to 2.0 fold increase)
- Magnitude of potentiation in combination with doxorubicin [3]: + (potentiation between 1.2 to 2.0 fold increase)
- Magnitude of potentiation in combination with doxorubicin [5]: ++ (potentiation between 2.1 to 5 fold increase)

Reference: patent US20150017673A1, “COMPOSITIONS AND METHODS FOR DRUG-SENSITIZATION OR INHIBITION OF A CANCER CELL” (priority 2012, published 2015)
